Experimental data published in patent US6734198B1, “Nematicidal trifluorobutenes” (Nihon Bayer Agrochem K.K., priority 1999, dated 2004).

Test system: Meloidogyne incognita
Assay: Test against Meloidogyne spp., soil pot test (tomato)
Format: in vivo
Settings: 10 ppm active ingredient in soil contaminated with Meloidogyne incognita; tomato (Kurihara) in pots, greenhouse, 4 weeks; from root knot index
Method: Test Against Meloidogyne spp. Soil pot Test
Preparation of Test Agent:
1 Part of the active compound is impregnated to 99 parts of pumice to obtain fine granules.
The test agent prepared as mentioned above was added to soil contaminated with Meloidogyne incognita to a chemical concentration of 10 ppm and homogeneously mixed by stirring. A pot (1/5000 are) was filled with the soil. About 20 seeds of tomato (variety: Kurihara) were sown per pot. After cultivation in a greenhouse for 4 weeks, they were carefully pulled out not to damage the roots and the root knot index and the controlling effect were determined as follows.
Degree of damage 0: No knots were formed (Complete control).
1: A few knots were formed.
2: Knots were formed to a medium extent.
3: Knots were formed to an intense extent.
4: Knots were formed to the most intense extent (which corresponds to non-treatment). [formula]
The controlling effect of the compounds tested can then be evaluated according to the following equation: [formula]
The evaluation of the controlling effects of the compounds according to the present invention was done on the basis of the values of the controlling effect which can be obtained in the above-mentioned way and were connected with the following standards:
a: Controlling effect 100-71%
b: Controlling effect 70-50%
c: Controlling effect less than 50%

Row | SMILES | Evaluation of controlling effect
1 | O=S(=O)(CCC(F)=C(F)F)c1ncc(Cl)s1 [Example 3, 5-chloro-2-(3,4,4-trifluoro-3-butenylsulfonyl)thiazole] | a (Controlling effect 100-71%)
2 | FC(F)=C(F)CCSc1ncc(Cl)s1 [Example 1, 5-chloro-2-(3,4,4-trifluoro-3-butenylthio)thiazole] | a (Controlling effect 100-71%)
3 | [O-][S+](CCC(F)=C(F)F)c1ncc(Cl)s1 (stereo not drawn) [Example 2, 5-chloro-2-(3,4,4-trifluoro-3-butenylsulfinyl)thiazole] | a (Controlling effect 100-71%)
